Data as given in PubChem BioAssay AID1918935 (Molecular Pharmacology Branch, DTP, NCI, 2023).
Where “and” joins values, the source holds several entries; their conditions need not be identical. Identical values can stand only once.

Test system: 324938-238-R-J1-PDC complex spheroid viability
Test: Anticancer human tumor 324938-238-R-J1-PDC patient-derived bladder carcinoma cell line growth inhibition
Settings: for viability, T/C: stronger effect = lower value
How it was run: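 Complex spheroids of tumor cells with HUVEC and human MSCs, exposed to iadademstat combined with other agents. Each agent tested in half-log steps from near clinical Cmax (else 10 microM top), DMSO ≤0.25%.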

[1] = curve of first compound, second compound 0.1 µM
[2] = curve of first compound, second compound 0.316 µM
[3] = curve of first compound, second compound 1 µM
[4] = curve of first compound, second compound 3.16 µM
[5] = curve of first compound, second compound 10 µM
[6] = second compound 0.1 µM, first compound 0.00316 µM
[7] = second compound 0.1 µM, first compound 0.01 µM
[8] = second compound 0.1 µM, first compound 0.0316 µM
[9] = second compound 0.1 µM, first compound 0.1 µM
[10] = second compound 0.1 µM, first compound 0.316 µM
[11] = second compound 0.1 µM, first compound 1 µM
[12] = second compound 0.316 µM, first compound 0.00316 µM
[13] = second compound 0.316 µM, first compound 0.01 µM
[14] = second compound 0.316 µM, first compound 0.0316 µM
[15] = second compound 0.316 µM, first compound 0.1 µM
[16] = second compound 0.316 µM, first compound 0.316 µM
[17] = second compound 0.316 µM, first compound 1 µM
[18] = second compound 1 µM, first compound 0.00316 µM
[19] = second compound 1 µM, first compound 0.01 µM
[20] = second compound 1 µM, first compound 0.0316 µM
[21] = second compound 1 µM, first compound 0.1 µM
[22] = second compound 1 µM, first compound 0.316 µM
[23] = second compound 1 µM, first compound 1 µM
[24] = second compound 3.16 µM, first compound 0.00316 µM
[25] = second compound 3.16 µM, first compound 0.01 µM
[26] = second compound 3.16 µM, first compound 0.0316 µM
[27] = second compound 3.16 µM, first compound 0.1 µM
[28] = second compound 3.16 µM, first compound 0.316 µM
[29] = second compound 3.16 µM, first compound 1 µM
[30] = second compound 10 µM, first compound 0.00316 µM
[31] = second compound 10 µM, first compound 0.01 µM
[32] = second compound 10 µM, first compound 0.0316 µM
[33] = second compound 10 µM, first compound 0.1 µM
[34] = second compound 10 µM, first compound 0.316 µM
[35] = second compound 10 µM, first compound 1 µM
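Also: spheroids also contain HUVEC and human MSCs and agents combined with iadademstat; spheroids exposed to agents for 7 days before readout.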

Row | Compound | IC50 [1] [nM] | IC50 [2] [nM] | IC50 [3] [nM] | IC50 [4] [nM] | IC50 [5] [nM] | viability, T/C [6] [%] | viability, T/C [7] [%] | viability, T/C [8] [%] | viability, T/C [9] [%] | viability, T/C [10] [%] | viability, T/C [11] [%] | viability, T/C [12] [%] | viability, T/C [13] [%] | viability, T/C [14] [%] | viability, T/C [15] [%] | viability, T/C [16] [%] | viability, T/C [17] [%] | viability, T/C [18] [%] | viability, T/C [19] [%] | viability, T/C [20] [%] | further results
1 | NC1CC1c1ccc(-c2cccc(O)c2)cc1 (stereo not drawn) |  |  |  |  |  |  |  |  |  |  |  |  |  |  |  |  |  |  |  |  | viability, T/C (compound 0.1 µM): 86.9% and 102% and 91.3%; viability, T/C (compound 3.16 µM): 73.9% [middle of 23 runs]; IC50 (compound alone, run of 12/07/2021): > 10000 nM
2 | Nc1ncn(C2CC(O)C(CO)O2)c(=O)n1 (stereo not drawn) + NC1CC1c1ccc(-c2cccc(O)c2)cc1 | 311 | 143 | 237 | 227 | 258 | 95.1 | 90.3 | 79.2 | 62.8 | 49.7 | 43.9 | 73.6 | 74.5 | 67.6 | 52.4 | 44.9 | 41 | 70.4 | 70.9 | 62.8 | viability, T/C [21]: 57%; viability, T/C [22]: 47.9%; viability, T/C [23]: 41.2%; viability, T/C [24]: 74.7%; viability, T/C [25]: 57.7%; viability, T/C [26]: 68.5%; viability, T/C [27]: 56.3%; viability, T/C [28]: 45.4%; viability, T/C [29]: 39.3%; viability, T/C [30]: 63.3%; viability, T/C [31]: 73.7%; viability, T/C [32]: 69.9%; viability, T/C [33]: 57.6%; viability, T/C [34]: 49.7%; viability, T/C [35]: 41.4%
3 | CC1COCCN1c1cc(-c2ccnn2C)c2ccnc(-c3ccn[nH]3)c2n1 (stereo not drawn) + NC1CC1c1ccc(-c2cccc(O)c2)cc1 | 22.9 | 17.6 | 12.9 | 15.8 | 12.9 | 90.1 | 73.6 | 40.5 | 20.6 | 14.1 | 12.1 | 74 | 61.5 | 38.1 | 20.6 | 13.3 | 11.6 | 66.7 | 54.7 | 35 | viability, T/C [21]: 21.5%; viability, T/C [22]: 14.3%; viability, T/C [23]: 10.8%; viability, T/C [24]: 73.9%; viability, T/C [25]: 57%; viability, T/C [26]: 39.3%; viability, T/C [27]: 22.1%; viability, T/C [28]: 14.5%; viability, T/C [29]: 12%; viability, T/C [30]: 69.6%; viability, T/C [31]: 54.1%; viability, T/C [32]: 36.4%; viability, T/C [33]: 24.2%; viability, T/C [34]: 17.9%; viability, T/C [35]: 13.7%
